The target of assay [1] is recombinant Mcl-1 (residues 172-327) (Homo sapiens (Human), UniProt Q07820). Kind of assay: Bak peptide binding assay, fluorescence polarization anisotropy competition (FITC-Bak), Mcl-1.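 Also: displacement of labeled Bak peptide read by fluorescence anisotropy, 10-point threefold dilutions from 20 µM top dose in 5% DMSO, 90 min incubation at room temperature.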 The following applies: FITC-Bak peptide 10 nM, Mcl-1 14 nM. (In general: Polarisation of emitted light reports the rotation of a fluorescent probe.)
Procedure: Compound affinity was measured using a fluorescence polarization anisotropy competition assay. Anisotropy measurements were carried out in 384-well, black, flat-bottom plates (Greiner Bio-one, Monroe, N.C., USA). […] 10 nM FITC-Bak peptide and 14 nM recombinant Mcl-1 (residues 172-327) were added to assay buffer (3 mM dithiothreitol, 50 mM NaCl, 20 mM Tris, pH 7.5).
Assay [2] deals with Bcl-xL (residues 1-209, loop 45-86 deleted) (Homo sapiens (Human), UniProt Q07817, DEL45-86). The experiment in a line: Bak peptide binding assay, fluorescence polarization anisotropy competition (FITC-Bak), Bcl-xL selectivity. The following applies: Table 4; FITC-Bak peptide 10 nM, Bcl-xL 4 nM. Here is the method: (§1) Bak Peptide Binding Assay
(§2) Compound affinity was measured using a fluorescence polarization anisotropy competition assay. Anisotropy measurements were carried out in 384-well, black, flat-bottom plates (Greiner Bio-one, Monroe, N.C., USA). The assay was run using a fluorescein isothiocyanate-labeled BH3 peptide derived from Bak (FITC-AHx-[…]-NH2) that was purchased from GenScript (Piscataway, N.J.) at >95% purity and used without further purification. 10 nM FITC-Bak peptide and 14 nM recombinant Mcl-1 (residues 172-327) were added to assay buffer (3 mM dithiothreitol, 50 mM NaCl, 20 mM Tris, pH 7.5). For selectivity assays, 40 nM Bcl-2 (residues 1-207^A96T,G110R, Δ35-91, replaced with Bcl-xL35-50) or 4 nM Bcl-xL (residues 1-209, loop 45-86 deleted) were incubated with 10 nM FITC-Bak in assay buffer.
(§3) Compounds are diluted in DMSO in a 10-point, 3-fold serial dilution scheme. 2.5 uL compound is added to 47.5 uL of assay buffer containing FITC-Bak and protein, for a final DMSO concentration of 5% and a top concentration of 20 uM. […] The plate was mixed and incubated for 90 minutes at room temperature. Anisotropy is measured at excitation wavelength 480 nm and emission wavelength 535 nm using an EnVision Multi-label plate reader (PerkinElmer, Wellesley, Mass., USA). Fluorescence anisotropy is plotted against compound concentration to generate an IC50 (inhibitor concentration at which 50% of bound peptide is displaced) by fitting the data to a 4-parameter logistic model using XLFit software (Guildford, Surrey, UK). IC50 is converted to a binding dissociation constant (Ki value) according to the formula of Wang Z. FEBS Lett (1996) 3, 245: Ki=[I]50/([L]50/Kd+[P]0/Kd+1) where [I]50 is the concentration of the free inhibitor at 50% inhibition, [L]50 is the concentration of the free labeled ligand at 50% inhibition, [P]0 is the concentration of the free protein at 0% inhibition, Kd represents the dissociation constant of the FITC peptide probe.

Assay [3] deals with K562. The experiment in a line: Cellular viability assay, CellTiter-Glo, K562. The assay is classed as cell-based. To be noted: Homo sapiens, Table 6 viability assay (method: reduced serum, 1% FBS). Here is the method: (§4) Cellular Viability of a Human Tumor Cell Lines
(§5) Human cancer cell lines NCI-H23, K562, NCI-H929, and MV-4-11 were cultured in media supplemented with 10% fetal bovine serum (FBS). To evaluate compound effect on cellular proliferation, cells were plated at 1,000 cells/well in 96-well tissue culture plates in a total volume of 90 uL medium supplemented with 10% FBS (Sigma, Saint Louis, Mo.). 24 hours later, 10 uL of compound (in a 2-fold serial dilution) is added to the cells for a top concentration of 50 uM and a final DMSO concentration <1%. After 72 hours, cell number was measured using the CellTiter-Glo Luminescent assay according to manufacturer's recommendations (Promega, Madison, Wis.). A viability assay in reduced serum was also conducted. Cells were plated at 5,000 cells/well in 96-well plates in a total volume of 100 uL medium supplemented with 10% FBS (Sigma, Saint Louis, Mo.). 24 hours later, the medium was replaced with 90 uL medium containing 1% FBS and the assay conducted as described. EC50 values were determined by plotting growth against compound concentration in a 4-parameter logisitic model in XLFit.

The test system of assay [4] is NCI-H23. The experiment in a line: Cellular viability assay, CellTiter-Glo, NCI-H23. The assay is classed as cell-based. The following applies: Homo sapiens, Table 6 viability assay (method: reduced serum, 1% FBS). As to the method: as §4, §5
On the technique in general: ATP-based viability assays read luminescence as a measure of living cells.

For assay [5], the system named is K562. The experiment in a line: Cellular proliferation, CellTiter-Glo, K562. The assay is classed as cell-based. The following applies: Homo sapiens, 10% FBS, 72 hours. Here is the method:
as §4, §5

Assay [6] concerns NCI-H23. The experiment in a line: Cellular proliferation, CellTiter-Glo, NCI-H23. To be noted: Homo sapiens, 10% FBS, 72 hours. The assay is classed as cell-based. As to the method: as §4, §5
Assay [7] has as its system MV-4-11. The experiment in a line: Cellular proliferation, CellTiter-Glo, MV-4-11. The assay is classed as cell-based. The following applies: Homo sapiens, MV4-11, 10% FBS, 72 hours, read-out: EC50 on cellular proliferation, NV-4-11. Here is the method: as §4, §5
The target in assay [8] is Bcl-2 (residues 1-207 A96T,G110R, Δ35-91, replaced with Bcl-xL35-50) (Homo sapiens (Human), UniProt P10415, DEL35-91/INS34DVEENRTEAPEGTESE). Kind of assay: Bak peptide binding assay, fluorescence polarization anisotropy competition (FITC-Bak), Bcl-2 selectivity. The following applies: Table 4; FITC-Bak peptide 10 nM, Bcl-2 40 nM. As to the method:
as §1, §2, §3

Assay [9] deals with MV-4-11. Kind of assay: Cellular viability assay, CellTiter-Glo, MV-4-11. The assay is classed as cell-based. To be noted: Homo sapiens, MV4-11, Table 6 viability assay (method: reduced serum, 1% FBS), read-out: EC50 on cellular viability, NV-4-11. Here is the method:
as §4, §5

Assay [10] deals with NCI-H929. Kind of assay: Cellular proliferation, CellTiter-Glo, NCI-H929. The assay is classed as cell-based. The following applies: Homo sapiens, 10% FBS, 72 hours. As to the method: as §4, §5
Where [11] appears, read: Table 3, binned ranges, read-out: Ki for inhibition of Mcl-1.

The results in this text go back to US10954193B2 (Vanderbilt University, priority 2013, dated 2021).

Molecules are shown by their SMILES. Read-outs that look alike come from different tables or passages of the source. Bounds are passed on as bounds.

Bcl-xL (residues 1-209, loop 45-86 deleted), sequence (Q07817 other isoform, or with tags, fused parts or gaps del 45-86): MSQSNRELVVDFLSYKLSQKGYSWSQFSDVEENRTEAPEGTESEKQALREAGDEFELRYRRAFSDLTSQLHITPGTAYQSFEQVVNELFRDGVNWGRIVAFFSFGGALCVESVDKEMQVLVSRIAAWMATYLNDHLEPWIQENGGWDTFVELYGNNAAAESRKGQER
recombinant Mcl-1 (residues 172-327), sequence (Q07820 172-327): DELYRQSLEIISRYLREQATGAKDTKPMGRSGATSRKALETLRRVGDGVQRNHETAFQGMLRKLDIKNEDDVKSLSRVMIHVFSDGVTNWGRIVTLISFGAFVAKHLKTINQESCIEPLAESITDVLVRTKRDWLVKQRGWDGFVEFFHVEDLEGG
Bcl-2 (residues 1-207 A96T,G110R, Δ35-91, replaced with Bcl-xL35-50), sequence (P10415 other isoform, or with tags, fused parts or gaps, stated change not applied): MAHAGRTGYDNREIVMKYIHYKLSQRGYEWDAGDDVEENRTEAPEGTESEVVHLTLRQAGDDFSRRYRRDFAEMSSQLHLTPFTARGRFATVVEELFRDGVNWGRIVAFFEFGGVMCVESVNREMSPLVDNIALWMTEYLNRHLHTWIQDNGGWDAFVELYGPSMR

A word on the Ki: it is a dissociation constant, usually derived from enzyme kinetics or from competition with a known ligand. For `Cc1cc(OCCCc2cn(CCC(=O)NS(C)(=O)=O)c3cc(Cl)ccc23)cc(C)c1Cl` [Example 20, 3-(6-chloro-3-(3-(4-chloro-3,5-dimethylphenoxy)propyl)-1H-indol-1-yl)-N-(methylsulfonyl)propanamide], the inhibition constant (Ki) in [1] (setting [11]) is 0.101 to 0.299 µM; in assay [1] (Table 4, read-out: Ki Mcl-1) it was 0.36 µM; in assay [2], 10 µM.

For `Cc1cc(OCCCc2c(C)n(CCC(=O)O)c3cc(Cl)ccc23)cc(C)c1Cl` [Example 44, 3-(6-chloro-3-(3-(4-chloro-3,5-dimethylphenoxy)propyl)-2-methyl-1H-indol-1-yl)propanoic acid], the inhibitory constant (Ki) in [1] (setting [11]) was 0.101 to 0.299 µM; in [1] (Table 4, read-out: Ki Mcl-1), 0.17 µM; in assay [2], 7.9 µM.

`Cc1cc(OCCCc2c(C)n(CCC(=O)O)c3c(-c4ccnn4C)cccc23)cc(C)c1Cl` [Example 70, 3-(3-(3-(4-chloro-3,5-dimethylphenoxy)propyl)-2-methyl-7-(1-methyl-1H-pyrazol-5-yl)-1H-indol-1-yl)propanoic acid]: the EC50 amounted to 4.1 µM in [3] and 5.8 µM in [4]. The Ki in assay [1] (setting [11]) was at most 0.1 µM.

On to `Cc1ccncc1-c1cccc2c(CCCOc3cc(C)c(Cl)c(C)c3)c(C)n(CCC(=O)O)c12` [Example 71, 3-(3-(3-(4-chloro-3,5-dimethylphenoxy)propyl)-2-methyl-7-(4-methylpyridin-3-yl)-1H-indol-1-yl)propanoic acid], for which the EC50 in assay [3] is 7 µM; in assay [4], 9.9 µM. Moreover, in [1] (setting [11]), the Ki is at most 0.1 µM.

Regarding `Cc1cc(OCCCc2c(C)n(CCC(=O)O)c3c(-c4c(C)n[nH]c4C)cccc23)cc(C)c1Cl` [Example 74, 3-(3-(3-(4-chloro-3,5-dimethylphenoxy)propyl)-7-(3,5-dimethyl-1H-pyrazol-4-yl)-2-methyl-1H-indol-1-yl)propanoic acid], the EC50 turned out to be 21.2 µM in [5]; 19.8 µM in assay [6]; 2 µM in assay [3]; 5.4 µM in [4]; 11.5 µM in assay [7]. Moreover, the inhibition constant Ki in assay [1] (setting [11]) was at most 0.1 µM.

In the case of `Cc1cc(OCCCc2c(C)n(CCC(=O)O)c3c(-c4c(C)nn(C)c4C)cccc23)cc(C)c1Cl` [Example 76, 3-(3-(3-(4-chloro-3,5-dimethylphenoxy)propyl)-2-methyl-7-(1,3,5-trimethyl-1H-pyrazol-4-yl)-1H-indol-1-yl)propanoic acid], the EC50 in [5] was 17.1 µM; in assay [7] it was 16.2 µM; in assay [9], 2.8 µM. In addition, the Ki in [8] was 7.1 µM; in [1] (setting [11]), at most 0.1 µM; in assay [1] (Table 4, read-out: Ki Mcl-1) it was 0.007 µM; in assay [2] it was 7.9 µM.

As for `Cc1cc(OCCCc2c(C)n(CCC(=O)O)c3c(-c4c(C)nn(C(C)C)c4C)cccc23)cc(C)c1Cl` [Example 78, 3-(3-(3-(4-chloro-3,5-dimethylphenoxy)propyl)-7-(1-isopropyl-3,5-dimethyl-1H-pyrazol-4-yl)-2-methyl-1H-indol-1-yl)propanoic acid], the EC50 stood at 10 µM in assay [5] and 12.9 µM in assay [7]. Besides, the Ki in assay [1] (setting [11]) is at most 0.1 µM.

On to `Cc1cnccc1-c1cccc2c(CCCOc3cc(C)c(Cl)c(C)c3)c(C)n(CCC(=O)NS(C)(=O)=O)c12` [Example 83, 3-(3-(3-(4-chloro-3,5-dimethylphenoxy)propyl)-2-methyl-7-(3-methylpyridin-4-yl)-1H-indol-1-yl)-N-(methylsulfonyl)propanamide], for which, in assay [1] (setting [11]), the Ki was at most 0.1 µM. Besides, the EC50 in [9] was 1.9 µM.

Take `Cc1cc(OCCCc2c(C)n(Cc3ccc(C(=O)O)o3)c3c(-c4c(C)n[nH]c4C)cccc23)cc(C)c1Cl` [Example 99, 5-((3-(3-(4-chloro-3,5-dimethylphenoxy)propyl)-7-(3,5-dimethyl-1H-pyrazol-4-yl)-2-methyl-1H-indol-1-yl)methyl)furan-2-carboxylic acid]: the Ki in assay [8] is 2.9 µM; in assay [1] (setting [11]), at most 0.1 µM; in assay [1] (Table 4, read-out: Ki Mcl-1), 0.011 µM; in assay [2], 9.3 µM.

Regarding `Cc1cc(OCCCc2c(C)n(Cc3cccc(C(=O)O)c3)c3c(-c4c(C)n[nH]c4C)cccc23)cc(C)c1Cl` [Example 100, 3-((3-(3-(4-chloro-3,5-dimethylphenoxy)propyl)-7-(3,5-dimethyl-1H-pyrazol-4-yl)-2-methyl-1H-indol-1-yl)methyl)benzoic acid], the inhibition constant (Ki) in assay [8] is 1.2 µM; in [1] (setting [11]), at most 0.1 µM; in assay [1] (Table 4, read-out: Ki Mcl-1), 0.01 µM; in assay [2], 4.7 µM.

On to `Cc1cc(OCCCc2c(C)n(CCC(=O)O)c3c(-c4c(C)nn(C)c4C)c(Cl)ccc23)cc(C)c1Cl` [Example 104, 3-(6-chloro-3-(3-(4-chloro-3,5-dimethylphenoxy)propyl)-2-methyl-7-(1,3,5-trimethyl-1H-pyrazol-4-yl)-1H-indol-1-yl)propanoic acid], for which the EC50 amounted to 24.8 µM in assay [5] and 20 µM in assay [10]. The inhibitory constant (Ki) in assay [1] (setting [11]) was at most 0.1 µM.

On to `Cc1cc(OCCCc2c(C(F)(F)F)n(Cc3ccc(CC(=O)O)cc3)c3c(-c4c(C)nn(C)c4C)cccc23)cc(C)c1Cl` [Example 117, 2-(4-((3-(3-(4-chloro-3,5-dimethylphenoxy)propyl)-2-(trifluoromethyl)-7-(1,3,5-trimethyl-1H-pyrazol-4-yl)-1H-indol-1-yl)methyl)phenyl)acetic acid], for which the EC50 came to 14.8 µM in assay [5] and 8.8 µM in [10]. For the same compound, in assay [1] (setting [11]), the inhibition constant Ki is at most 0.1 µM.
